Patent publication US11766434B2, “Pyrimidinone derivatives as CDC7 inhibitors” (Cancer Research Technology Limited, priority 2016, dated 2023)

Target: Cdc7 (Homo sapiens, UniProt O00311)
Experiment: Cdc7 cell pharmacodynamics assay Method 2: pS40MCM2 levels in HCT116 cells
Type: cell-based
Set-up: endogenous in cells
Conditions: 18 hours treatment, read-out: Biomarker Method 2 (pEC50) (converted)
Description: This protocol describes a method to investigate the inhibition of Cdc7 activity by measuring pS40MCM2 levels in cells, after treatment with compounds.
• HCT116 cells (ATCC, #CCL-247) • McCoys 5A with L-glutamine (Cellgro, #10-050-CV) • 10% FCS (Cellgro, #35-010-CV) • D-PBS without CaCl2 and MgCl2 (Cellgro, #21-031-CV) • Trypsin/EDTA (Cellgro, #25-052-CL) • BSA (Calbiochem, 126593) • Cell Extraction Buffer (Invitrogen FNN0011) • Protease inhibitor cocktail (Sigma P-2714) • PMSF 0.3M stock in DMSO (Sigma P7626) • Antibody—rabbit pMCM2 Ser40 (Abeam, AB133243) • Antibody—goat MCM2 (Bethyl #A300-122A) • Antibody—goat Anti Rabbit IgG HRP (Thermo, 31462) • SuperSignal ELISA Pico Chemiluminescent Substrate (Perbio Science UK Ltd 37069) • 10×PBS (Growcells, MRGF-6236) • Triton X100 (Sigma, P-T8787) • DMSO (Fisher, D128-1) • 2-Propanol (J. T. Baker, 9095-03) Method • Seed 1×10^6 HCT116 cells into each of two 175 cm^2 flask containing 30 mL Cell Growth Media and incubate at 37° C., 5% CO2 for 3 days. • Harvest the cells from one T175 cm^2 flask and count. • Dilute with Cell Growth Media to a cell density of 2×10^5. Dispense 100 μL to each well (20,000 HCT116 cells/well) of TC treated 96-well plate(s). • Allow cells to settle overnight in incubator set at 37° C. and 5% CO2. • Cell treatment: Transfer 0.25 μL/well from the compound plate to the wells of the cell plate(s). This is a 1:400 dilution of compound in the assay. • Once all cells are treated place the cells back to the incubator and incubate for 18 hours. • Dilute the capture antibody (total MCM2 #A300-122A) 1 in 250 in the required volume of PBS (5 mL per assay plate, plus 5 mL for dead volume) and add 50 μL to each well of a Hybond plate except wells A12 & B12. Seal the plate and incubate at room temperature fora minimum of 2 hours. • Defrost aliquot of Invitrogen Cell Extraction Buffer (FNN0011) on ice and supplement with appropriate volume of both Sigma protease inhibitor cocktail (P-2714) and PMSF (final cone 1 mM from a 1 M stock in DMSO). • After the 6 hour or 18 hour cell treatment time, tap out the media from the assay plates and place them in the −70° C. freezer for at least 5 minutes. • Flick out the remaining liquid in the previously prepared capture Ab plate(s) and add 200 μL 2% BSA per well. Incubate for 1 hour at room temperature. • Remove plates from freezer and add 20 μL of ice cold complete lysis buffer. Incubate cells for 30 minutes at 4° C. • Add 30 μL per well 2% BSA • At the end of the 1 hour incubation, wash the Capture/ELISA plate(s) with Wash Buffer on the BioTek plate washer. • Transfer 40 μL per well of the lysis plate(s) to the same wells in the Capture/ELISA plate. Incubate cells overnight at 4° C. • At the end of the overnight incubation, wash the ELISA plate(s) with Wash Buffer on BioTek plate washer. • Prepare Detection Antibody Buffer and dispense 50 μL to all wells of ELISA plate(s) except wells G1 & H1. Cover plate and incubate at room temperature for 2 hours with gentle shaking. • At the end of the 2 hour incubation, wash the ELISA plate(s) with Wash Buffer on the BioTek plate washer. • Prepare the Conjugated Antibody Buffer and dispense 50 μL to all wells of ELISA plate(s). • Cover the plate and incubate at room temperature for 1 hour with gentle shaking. • At the end of the 1 hour incubation, wash the ELISA plate(s) with Wash Buffer on the BioTek plate washer. • Prepare Substrate Buffer and dispense 50 μL to all wells of ELISA plate(s). • Incubate for a minimum of 10 minutes and read plates on the EnVision 2100 Multilabel Reader (Mirror: Luminescence (404) & Luminescence 700 (212); Measurement Height: 6.5 mm; Measurement Time: 0.2 s). Method 3

Sequence of Cdc7 (O00311 whole entry): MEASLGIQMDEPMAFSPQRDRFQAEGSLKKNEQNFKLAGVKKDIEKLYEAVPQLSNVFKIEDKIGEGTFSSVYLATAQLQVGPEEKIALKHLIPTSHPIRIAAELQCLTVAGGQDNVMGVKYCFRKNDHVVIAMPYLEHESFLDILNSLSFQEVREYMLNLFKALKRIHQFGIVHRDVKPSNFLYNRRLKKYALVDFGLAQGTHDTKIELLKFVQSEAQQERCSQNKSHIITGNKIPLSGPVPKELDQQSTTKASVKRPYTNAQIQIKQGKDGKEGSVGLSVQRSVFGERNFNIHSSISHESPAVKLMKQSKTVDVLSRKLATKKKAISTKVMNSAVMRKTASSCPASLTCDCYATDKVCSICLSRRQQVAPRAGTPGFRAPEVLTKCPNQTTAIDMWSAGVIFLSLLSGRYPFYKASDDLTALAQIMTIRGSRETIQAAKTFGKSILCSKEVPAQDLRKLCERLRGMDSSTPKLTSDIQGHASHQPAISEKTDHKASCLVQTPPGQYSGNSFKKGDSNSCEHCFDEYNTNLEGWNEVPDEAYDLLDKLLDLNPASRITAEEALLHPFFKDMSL
Sequence of Cdc7 (Q9UBU7 whole entry partner): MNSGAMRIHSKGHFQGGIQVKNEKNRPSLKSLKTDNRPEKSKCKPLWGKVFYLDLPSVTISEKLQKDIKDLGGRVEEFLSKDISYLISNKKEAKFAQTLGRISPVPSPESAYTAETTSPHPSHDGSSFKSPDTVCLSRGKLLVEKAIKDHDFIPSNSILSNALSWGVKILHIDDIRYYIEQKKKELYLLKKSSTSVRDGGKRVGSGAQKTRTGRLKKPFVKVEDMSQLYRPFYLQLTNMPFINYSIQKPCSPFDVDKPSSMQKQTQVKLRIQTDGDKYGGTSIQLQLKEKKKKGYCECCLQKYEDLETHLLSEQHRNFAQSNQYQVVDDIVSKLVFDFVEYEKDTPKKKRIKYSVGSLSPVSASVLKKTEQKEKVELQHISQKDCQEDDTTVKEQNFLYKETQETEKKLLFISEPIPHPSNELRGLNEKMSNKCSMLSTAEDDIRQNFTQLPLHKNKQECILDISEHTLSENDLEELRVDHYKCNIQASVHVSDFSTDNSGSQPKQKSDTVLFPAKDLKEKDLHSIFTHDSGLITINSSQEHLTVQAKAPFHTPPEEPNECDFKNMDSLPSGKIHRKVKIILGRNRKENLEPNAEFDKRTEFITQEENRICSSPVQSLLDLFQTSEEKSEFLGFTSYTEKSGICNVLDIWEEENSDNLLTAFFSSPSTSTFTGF

Row | Structure (SMILES) | EC50 [nM]
1 | C[C@@H]1COCCN1c1nc(-c2cn[nH]c2C(F)(F)F)[nH]c(=O)c1Cl [Compound 41, 5-chloro-4-[(3R)-3-methylmorpholin-4-yl]-2-[5-(trifluoromethyl)-1H-pyrazol-4-yl]-1H-pyrimidin-6-one] | 7.24
2 | O=c1[nH]c(-c2cn[nH]c2C(F)(F)F)nc(C2CCOCC2)c1Cl [Compound 17, 5-chloro-4-tetrahydropyran-4-yl-2-[5-(trifluoromethyl)-1H-pyrazol-4-yl]-1H-pyrimidin-6-one] | 372
3 | C[C@@H]1CNCCN1c1nc(-c2cn[nH]c2Cl)[nH]c(=O)c1Cl [Compound 43, 5-chloro-2-(5-chloro-1H-pyrazol-4-yl)-4-[(2R)-2-methylpiperazin-1-yl]-1H-pyrimidin-6-one] | 38
4 | C[C@@H]1CNCCN1c1nc(-c2cn[nH]c2C(F)(F)F)[nH]c(=O)c1Cl [Compound 44, 5-chloro-4-[(2R)-2-methylpiperazin-1-yl]-2-[5-(trifluoromethyl)-1H-pyrazol-4-yl]-1H-pyrimidin-6-one] | 25.1
